Measurements published in ChEMBL document CHEMBL5154726, “Identification of triazolopyridine derivatives as a new class of AhR agonists and evaluation of anti-psoriasis effect in a mouse model” (Eur J Med Chem, 2022).
In brackets after ≈: the same amount, converted by molar mass.

What was measured:
[1] = target: T1, Aryl hydrocarbon receptor (Homo sapiens, UniProt P35869); test: Agonist activity at AhR in human recombinant HepG2-Lucia AhR cell incubated for 24 hrs by luciferase reporter gene assay; format: cell-based
T1 sequence (P35869 whole entry): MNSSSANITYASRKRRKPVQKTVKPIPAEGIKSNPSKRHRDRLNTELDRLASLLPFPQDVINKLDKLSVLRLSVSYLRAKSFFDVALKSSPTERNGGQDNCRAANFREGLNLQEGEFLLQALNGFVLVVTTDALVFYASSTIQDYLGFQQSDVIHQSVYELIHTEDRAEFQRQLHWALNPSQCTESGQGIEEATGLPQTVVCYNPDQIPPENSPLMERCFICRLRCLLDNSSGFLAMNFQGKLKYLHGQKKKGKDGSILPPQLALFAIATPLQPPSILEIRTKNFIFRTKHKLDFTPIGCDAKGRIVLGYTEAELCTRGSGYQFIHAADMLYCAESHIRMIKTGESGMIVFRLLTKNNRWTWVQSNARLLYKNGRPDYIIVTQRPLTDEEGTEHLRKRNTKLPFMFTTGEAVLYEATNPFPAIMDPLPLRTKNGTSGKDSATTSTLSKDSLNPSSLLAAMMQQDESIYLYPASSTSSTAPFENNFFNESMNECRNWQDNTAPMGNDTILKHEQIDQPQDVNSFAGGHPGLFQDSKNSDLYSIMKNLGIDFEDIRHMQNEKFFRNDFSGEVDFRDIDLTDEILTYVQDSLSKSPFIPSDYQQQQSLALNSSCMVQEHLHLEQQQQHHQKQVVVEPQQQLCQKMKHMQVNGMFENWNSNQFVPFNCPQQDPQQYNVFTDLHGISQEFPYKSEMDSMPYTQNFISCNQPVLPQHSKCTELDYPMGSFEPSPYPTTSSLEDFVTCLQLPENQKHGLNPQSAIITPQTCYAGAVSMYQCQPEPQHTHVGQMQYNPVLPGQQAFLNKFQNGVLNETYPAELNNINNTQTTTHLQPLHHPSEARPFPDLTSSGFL

[2] = Induction of apoptosis in human CD4+ve Th cells; format: toxicity, cell-based
[3] = Apparent permeability in MDCK cells at 50 uM incubated for 90 mins by LC/MS analysis; format: ADME, cell-based, Canis lupus familiaris; conditions: dog
[4] = Efflux ratio of apparent permeability in MDCK cells; format: ADME, cell-based, Canis lupus familiaris; conditions: dog
[5] = Solubility of the compound incubated for 48 hrs under shaking condition by LC/MS analysis; format: physicochemical
[6] = n-Octanol/water partition coefficient, logD of the compound at 1 mg incubated for 48 hrs under shaking condition by LC/MS analysis; format: physicochemical

Row | EC50 [1] [nM] | Compound | further results
1 | > 10000 | Cc1ccc2nc(-c3ccc(Br)cc3)nn2c1 | –
2 | > 10000 | [O-][n+]1c(-c2ccc(F)cc2)nc2ccccn21 | –
3 | – | CC(C)c1c(O)cc(/C=C/c2ccccc2)cc1O [TAPINAROF] | IC50 [2]: 5200 nM
4 | > 10000 | [O-][n+]1c(-c2ccc(-c3ccc(Cl)cc3)o2)nc2ccccn21 | –
5 | 172 | Brc1ccc(-c2nc3c(Br)cccn3n2)cc1 | –
6 | 0.27 | [O-][n+]1c(-c2ccc(Br)cc2)nc2ccc(Br)cn21 | Papp at 1.5 h, 50 µM [3]: 1.43 ×10⁻⁶ cm/s; efflux ratio [4]: 6.2; solubility thermodynamic at 48 h [5]: 2.24 µg/mL (≈ 6.07 µM); logD at 48 h [6]: 2.59
7 | 1890 | Cc1ccc(-c2nc3ccc(Br)cn3n2)cc1 | –
8 | 374 | [O-][n+]1c(-c2ccc(Br)cc2)nc2c(Br)cccn21 | –
9 | 62 | [O-][n+]1c(-c2ccc(Br)cc2)nc2cc(Br)ccn21 | –
10 | 4660 | [O-][n+]1c(-c2ccncc2)nc2ccccn21 | –
11 | > 10000 | [O-][n+]1c(-c2cccnc2)nc2ccccn21 | –
12 | 1190 | Fc1ccc(-c2nc3ccc(Br)cn3n2)cc1 | –
13 | > 10000 | [O-][n+]1c(-c2ccc3ccccc3c2)nc2ccccn21 | –
14 | 83 | [O-][n+]1c(-c2ccc(Br)cc2)nc2cc(F)ccn21 | –
15 | 205 | [O-][n+]1c(-c2ccc(Br)cc2)nc2cccc(Br)n21 | –
16 | > 10000 | Brc1ccc(-c2nc3cc4ccccc4cn3n2)cc1 | –
17 | > 10000 | COc1ccc(-c2nc3ccccn3[n+]2[O-])cc1 | –
18 | 2430 | Brc1ccc2nc(-c3ccccc3Br)nn2c1 | –
19 | 1090 | [O-][n+]1c(-c2ccc(Br)cc2)nc2ccc(F)cn21 | –

Row | EC50 [1] [nM] | Compound | further results
20 | 2500 | [O-][n+]1c(-c2ccc(Br)cc2)nc2ccccn21 | –
21 | 625 | Brc1ccc(-c2nc3cc(Br)ccn3n2)cc1 | –
22 | > 10000 | [O-][n+]1c(-c2ccc(Br)nc2)nc2ccccn21 | –
23 | > 10000 | Brc1ccc2nc(-c3ccccc3)nn2c1 | –
24 | 23 | N#Cc1ccc2nc(-c3ccc(Br)cc3)nn2c1 | –
25 | 271 | [O-][n+]1c(-c2ccc(Br)cc2)nc2cc(Cl)ccn21 | –
26 | 156 | Clc1ccc2nc(-c3ccc(Br)cc3)nn2c1 | –
27 | > 10000 | Brc1ccc(-c2nc3ccc(-c4ccccc4)cn3n2)cc1 | –
28 | 0.44 | FC(F)(F)c1ccc(-c2nc3ccc(Br)cn3n2)cc1 | –
29 | 842 | Cc1ccc2nc(-c3ccc(Br)cc3)[n+]([O-])n2c1 | –
30 | 0.34 | [O-][n+]1c(-c2ccc(Br)cc2)nc2ccc(Cl)cn21 | –
31 | 9.6 | Brc1cccc(-c2nc3ccc(Br)cn3n2)c1 | –
32 | 0.83 | Clc1ccc(-c2nc3ccc(Br)cn3n2)cc1 | –
33 | 759 | [O-][n+]1c(-c2ccc(Br)cc2)nc2ccc(C(F)(F)F)cn21 | –
34 | 77 | N#Cc1ccc2nc(-c3ccc(Br)cc3)[n+]([O-])n2c1 | –
35 | 658 | Fc1ccc2nc(-c3ccc(Br)cc3)nn2c1 | –
36 | > 10000 | COC(=O)c1ccc(-c2nc3ccccn3[n+]2[O-])cc1 | –
37 | 625 | Brc1ccc(-c2nc3cccc(Br)n3n2)cc1 | –
38 | 3330 | [O-][n+]1c(-c2ccc(Cl)cc2)nc2ccccn21 | –
